In publication PMC5352699, “Synthesis and in vitro antitumor activity of (1E,4E)-1-aryl-5-(2-((quinazolin-4-yl)oxy)phenyl)-1,4-pentadien-3-one derivatives” (Chemistry Central Journal, 2017):

Key:
[1] = system: human prostate cancer cell line PC3; test: MTT assay, PC3 cells; format: cell-based; details: for inhibition at 10 µM: PC-3, 10 μM, 72 h, read-out: Inhibition rates against different cells (%) PC3; for IC50: PC-3, 72 h after treatment
Procedure: (§1) The in vitro antitumor activity of the newly synthesized compounds 5a–5n were evaluated against a panel of three human cancer cell lines, including human gastric cancer cell line MGC-803, human prostate cancer cell line PC3, and human breast cancer cell line Bcap-37, and one normal cell line NIH3T3 (mouse embryo fibroblast cell line) by MTT method. Adriamycin (ADM) was chosen as a reference drug due to its availability and widespread use. Each experiment was repeated at least three times.
(§2) Human gastric cancer cell line MGC-803, human prostate cancer cell line PC3, and human breast cancer cell line Bcap-37 and one normal cell line NIH3T3 were obtained from Cell Bank of Type Culture Collection of Chinese Academy of Sciences (Shanghai, China). NIH3T3 was routinely maintained in a DMEM medium, while all the other cell lines were cultured in a 1640 medium. All the cells were grown in the medium supplemented with 10% FBS at 37 °C with 5% CO2.
(§3) The growth-inhibitory effects of the test compounds were determined on MGC-803, PC3, Bcap-37, and NIH3T3 cells. All cell types were seeded into 96-well plates at a density of 2 × 10^3 cells/well 100 μL of the proper culture medium and incubated with increasing concentrations of the compounds at 37 °C under cell culturing conditions. An MTT assay (Roche Molecular Biochemicals, 1465-007) was performed 72 h later according to the instructions provided by Roche. The precipitated formazan crystals were dissolved in SDS, and the absorbance was read at 595 nm with a microplate reader (BIO-RAD, model 680), which is directly proportional to the number of living cells in culture. The experiment was performed in triplicate. The percentage cytotoxicity was calculated using the formula. %Cytotoxicity=Controlabs-Blankabs-Testabs-Blankabs/Controlabs-Blankabs×100

[2] = system: human breast cancer cell line Bcap-37; test: MTT assay, Bcap-37 cells; format: cell-based; details: for inhibition at 10 µM: Bcap37, 10 μM, 72 h, read-out: Inhibition rates against different cells (%) Bcap-37; for IC50: Bcap37, 72 h after treatment
Procedure: as §1, §2, §3

[3] = system: normal cell line NIH3T3 (mouse embryo fibroblast cell line); test: MTT assay, NIH3T3 normal cells; format: cell-based; details: 72 h, read-out: Inhibition rates against different cells (%) NIH3T3
Procedure: as §1, §2, §3

[4] = system: human gastric cancer cell line MGC-803; test: MTT assay, MGC-803 cells; format: cell-based; details: for inhibition at 10 µM: 72 h, read-out: Inhibition rates against different cells (%) MGC-803; for IC50: 72 h after treatment
Procedure: as §1, §2, §3

COc1cccc2c1C(=O)c1c(O)c3c(c(O)c1C2=O)C[C@@](O)(C(=O)CO)C[C@@H]3O[C@H]1C[C@H](N)[C@H](O)[C@H](C)O1 [ADM, Adriamycin, reference compound] gave an inhibition at 10 µM [1] of 91.2 ± 0.4%, an IC50 [1] of 1.01 ± 0.2 µM and an inhibition at 10 µM [2] of 94.5 ± 0.9%. For the same molecule, the IC50 [2] was 1.9 ± 0.25 µM, the inhibition at 10 µM [3] was 100 ± 0.7% and the inhibition at 10 µM [4] was 97.5 ± 1.2%. For the same molecule, the IC50 [4] was 0.74 ± 0.24 µM.

Cc1ccc2ncnc(Oc3ccccc3/C=C/C(=O)/C=C/c3ccccc3F)c2c1 [Compound 5a, (1E,4E)-1-(2-fluorophenyl)-5-(2-((6-methylquinazolin-4-yl)oxy)phenyl)penta-1,4-dien-3-one] gave an inhibition at 10 µM [1] of 68.5 ± 2.3%, an IC50 [1] of 9.24 ± 0.46 µM and an inhibition at 10 µM [2] of 44.1 ± 2.6%. For the same molecule, the IC50 [2] was 11.7 ± 0.39 µM, the inhibition at 10 µM [3] was 65.7 ± 1.3% and the inhibition at 10 µM [4] was 71.9 ± 0.9%. The IC50 [4] was 7.69 ± 0.37 µM.

For Cc1ccc2ncnc(Oc3ccccc3/C=C/C(=O)/C=C/c3ccccc3Cl)c2c1 [Compound 5b, (1E,4E)-1-(2-chlorophenyl)-5-(2-((6-methylquinazolin-4-yl)oxy)phenyl)penta-1,4-dien-3-one], the inhibition at 10 µM [1] was 78.7 ± 2.4%, the IC50 [1] was 8.12 ± 0.46 µM and the melting point was 152 to 154 °C. It also gave an inhibition at 10 µM [2] of 57.3 ± 2%, an IC50 [2] of 10.1 ± 0.67 µM and an inhibition at 10 µM [3] of 15.4 ± 1.5%. It also gave an inhibition at 10 µM [4] of 83.5 ± 1.5% and an IC50 [4] of 5.2 ± 0.51 µM.

Work on Cc1ccc2ncnc(Oc3ccccc3/C=C/C(=O)/C=C/c3ccc(Cl)cc3)c2c1 [Compound 5c, (1E,4E)-1-(4-chlorophenyl)-5-(2-((6-methylquinazolin-4-yl)oxy)phenyl)penta-1,4-dien-3-one] yielded an inhibition at 10 µM [1] of 76.5 ± 1.7%, an IC50 [1] of 7.85 ± 0.32 µM and a melting point of 173 to 176 °C. For the same molecule, the inhibition at 10 µM [2] was 54.2 ± 1.1%, the IC50 [2] was 9.34 ± 0.52 µM and the inhibition at 10 µM [3] was 16.1 ± 2.7%. For the same molecule, the inhibition at 10 µM [4] was 79.2 ± 2.8% and the IC50 [4] was 5.44 ± 0.45 µM.

For Cc1ccc2ncnc(Oc3ccccc3/C=C/C(=O)/C=C/c3cc([N+](=O)[O-])ccc3Cl)c2c1 [Compound 5d, (1E,4E)-1-(2-chloro-5-nitrophenyl)-5-(2-((6-methylquinazolin-4-yl)oxy)phenyl)penta-1,4-dien-3-one], the inhibition at 10 µM [1] was 86.3 ± 0.8%, the IC50 [1] was 2.68 ± 0.43 µM and the inhibition at 10 µM [2] was 58.5 ± 1.3%. For the same molecule, the IC50 [2] was 7.52 ± 0.36 µM, the inhibition at 10 µM [3] was 71.9 ± 1.4% and the inhibition at 10 µM [4] was 87.5 ± 0.2%. The IC50 [4] was 1.72 ± 0.22 µM.

Work on Cc1ccc2ncnc(Oc3ccccc3/C=C/C(=O)/C=C/c3ccc(Cl)cc3Cl)c2c1 [Compound 5e, (1E,4E)-1-(2,4-dichlorophenyl)-5-(2-((6-methylquinazolin-4-yl)oxy)phenyl)penta-1,4-dien-3-one] yielded an inhibition at 10 µM [1] of 75.2 ± 7.8%, an IC50 [1] of 4.71 ± 0.36 µM and a melting point of 211 to 214 °C. The inhibition at 10 µM [2] was 67.3 ± 3.9%, the IC50 [2] was 9.6 ± 0.42 µM and the inhibition at 10 µM [3] was 53.8 ± 1.8%. The inhibition at 10 µM [4] was 87 ± 1% and the IC50 [4] was 1.89 ± 0.26 µM.

In the case of COc1ccc(OC)c(/C=C/C(=O)/C=C/c2ccccc2Oc2ncnc3ccc(C)cc23)c1 [Compound 5g], the inhibition at 10 µM [1] is reported as 83.1 ± 2.8%, the IC50 [1] is reported as 2.18 ± 0.31 µM and the melting point is reported as 122 to 123 °C. The inhibition at 10 µM [2] was 74.9 ± 2%, the IC50 [2] was 5.61 ± 0.5 µM and the inhibition at 10 µM [3] was 74.3 ± 0.9%. The inhibition at 10 µM [4] was 85.9 ± 1.2% and the IC50 [4] was 2.02 ± 0.37 µM.

For Cc1cccc2c(Oc3ccccc3/C=C/C(=O)/C=C/c3ccccc3F)ncnc12 [Compound 5h, (1E,4E)-1-(2-fluorophenyl)-5-(2-((8-methylquinazolin-4-yl)oxy)phenyl)penta-1,4-dien-3-one], the inhibition at 10 µM [1] was 43.7 ± 12.1%, the IC50 [1] was 11.7 ± 0.48 µM and the inhibition at 10 µM [2] was 36.6 ± 2.7%. The IC50 [2] was 15.6 ± 0.51 µM, the inhibition at 10 µM [3] was 13.4 ± 2.2% and the inhibition at 10 µM [4] was 62.3 ± 1.4%. For the same molecule, the IC50 [4] was 9.06 ± 0.4 µM.

In the case of Cc1cccc2c(Oc3ccccc3/C=C/C(=O)/C=C/c3ccccc3Cl)ncnc12 [Compound 5i, (1E,4E)-1-(2-chlorophenyl)-5-(2-((8-methylquinazolin-4-yl)oxy)phenyl)penta-1,4-dien-3-one], the inhibition at 10 µM [1] is reported as 65.1 ± 2.6%, the IC50 [1] is reported as 9.36 ± 0.52 µM and the melting point is reported as 152 to 154 °C. It also gave an inhibition at 10 µM [2] of 47.1 ± 2.6%, an IC50 [2] of 10.7 ± 0.62 µM and an inhibition at 10 µM [3] of 14.4 ± 2.6%. It also gave an inhibition at 10 µM [4] of 79.4 ± 2.4% and an IC50 [4] of 7.78 ± 0.48 µM.

In the case of Cc1cccc2c(Oc3ccccc3/C=C/C(=O)/C=C/c3ccc(Cl)cc3)ncnc12 [Compound 5j, (1E,4E)-1-(4-chlorophenyl)-5-(2-((8-methylquinazolin-4-yl)oxy)phenyl)penta-1,4-dien-3-one], the inhibition at 10 µM [1] is reported as 71.9 ± 3.1%, the IC50 [1] is reported as 8.64 ± 0.47 µM and the melting point is reported as 161 to 163 °C. It also gave an inhibition at 10 µM [2] of 45.4 ± 2.2%, an IC50 [2] of 12.1 ± 0.31 µM and an inhibition at 10 µM [3] of 41 ± 2.1%. The inhibition at 10 µM [4] was 76.3 ± 0.8% and the IC50 [4] was 6.42 ± 0.44 µM.

Cc1cccc2c(Oc3ccccc3/C=C/C(=O)/C=C/c3cc([N+](=O)[O-])ccc3Cl)ncnc12 [Compound 5k, (1E,4E)-1-(2-chloro-5-nitrophenyl)-5-(2-((8-methylquinazolin-4-yl)oxy)phenyl)penta-1,4-dien-3-one] gave an inhibition at 10 µM [1] of 76.3 ± 2.5%, an IC50 [1] of 8.12 ± 0.46 µM and a melting point of 198 to 200 °C. For the same molecule, the inhibition at 10 µM [2] was 60.2 ± 1.4%, the IC50 [2] was 8.92 ± 0.58 µM and the inhibition at 10 µM [3] was 3 ± 2.3%. The inhibition at 10 µM [4] was 82.1 ± 3% and the IC50 [4] was 2.94 ± 0.32 µM.

Work on Cc1cccc2c(Oc3ccccc3/C=C/C(=O)/C=C/c3ccc(Cl)cc3Cl)ncnc12 [Compound 5l, (1E,4E)-1-(2,4-dichlorophenyl)-5-(2-((8-methylquinazolin-4-yl)oxy)phenyl)penta-1,4-dien-3-one] yielded an inhibition at 10 µM [1] of 55.7 ± 1.5%, an IC50 [1] of 9.08 ± 0.52 µM and a melting point of 175 to 178 °C. For the same molecule, the inhibition at 10 µM [2] was 54.6 ± 1%, the IC50 [2] was 9.83 ± 0.46 µM and the inhibition at 10 µM [3] was 0.8 ± 1.6%. It also gave an inhibition at 10 µM [4] of 61.2 ± 1.3% and an IC50 [4] of 4.33 ± 0.35 µM.

Molecule Cc1cccc2c(Oc3ccccc3/C=C/C(=O)/C=C/c3c(Cl)cccc3Cl)ncnc12 [Compound 5m, (1E,4E)-1-(2,6-dichlorophenyl)-5-(2-((8-methylquinazolin-4-yl)oxy)phenyl)penta-1,4-dien-3-one] has an inhibition at 10 µM [1] of 81.2 ± 2.8%, an IC50 [1] of 3.79 ± 0.47 µM and a melting point of 161 to 163 °C. For the same molecule, the inhibition at 10 µM [2] was 66.4 ± 1.5%, the IC50 [2] was 7.82 ± 0.39 µM and the inhibition at 10 µM [3] was 12.4 ± 2.5%. For the same molecule, the inhibition at 10 µM [4] was 81.1 ± 1.7% and the IC50 [4] was 2.05 ± 0.39 µM.

Work on COc1ccc(OC)c(/C=C/C(=O)/C=C/c2ccccc2Oc2ncnc3c(C)cccc23)c1 [Compound 5n, (1E,4E)-1-(2,5-dimethoxyphenyl)-5-(2-((8-methylquinazolin-4-yl)oxy)phenyl)penta-1,4-dien-3-one] yielded an inhibition at 10 µM [1] of 69 ± 1.7%, an IC50 [1] of 4.16 ± 0.43 µM and a melting point of 176 to 178 °C. For the same molecule, the inhibition at 10 µM [2] was 55.8 ± 1.1%, the IC50 [2] was 8.7 ± 0.54 µM and the inhibition at 10 µM [3] was 29.6 ± 2.4%. For the same molecule, the inhibition at 10 µM [4] was 78.7 ± 2.7% and the IC50 [4] was 3.33 ± 0.42 µM.
